Patent US11759480B2, “Compositions and methods for CAR T cell therapy” (ENDOCYTE, INC., priority 2017, dated 2023)
Where two headings read alike, the source gives them in different places.

How the values were obtained:
[1] = system: MDA-MB-231 tumors; assay: FITC-CAR-T cell proliferation in vivo versus EC17 dose (Example 36); set-up: species or system NSG mice
Method: To evaluate whether the bridge dose can control CAR-T proliferation in vivo, NSG mice bearing MDA-MB-231 tumors (250-500 mm3) were divided into 4 groups and dosed with 0, 5, 50, or 500 nmol/kg of body weight of EC17 respectively (as shown in FIG. 40A). Four hours later, the four groups were administered with 5 million FITC-CAR-T cells which were cultured in vitro for 11 days, while one group of mice pre-dosed with 500 nmol/kg EC17 was not dosed with CAR-T cells and was used as a “No CAR-T control”. […] Blood samples were then collected 16 hours post the second EC17 dose and analyzed for CAR-T numbers in blood circulation (FIG. 40B). […] The interpretation of this finding is that CAR-T cells proliferated more in mice dosed with 50 or 500 nmol/kg EC17 than in mice dosed with 5 nmol/kg EC17, so that the CAR-T counts in blood circulation were higher.
To further confirm that FITC-CAR-T proliferation is EC17 dose-dependent, we also evaluated CAR-T proliferation in vivo when CAR-Ts were given more time to settle down and proliferate. For this purpose, we examined CAR-T cell number in mice which were administered with CAR-T cells six days earlier and four doses of EC17 had been given to boost CAR-T proliferation in vivo. NSG mice bearing MDA-MB-231 tumors (250-500 mm3) were divided into 4 groups and dosed with 0, 5, 50, or 500 nmol/kg of body weight of EC17 respectively (as shown in FIG. 41A). Four hours later, all mice were administered with 5 million FITC-CAR-T cells which were cultured in vitro for 18 days. Various levels of EC17 were then dosed at days 1, 3, 5 post CAR-T administering to boost CAR-T proliferation. Mouse blood samples were collected 24 hours post the last EC17 dose, CAR-T cells in blood were stained with anti-human CD45 antibody and counted by FACS.

[2] = system: MDA-MB-231; assay: FITC-CAR-T/EC17 therapy, MDA-MB-231 model (Example 28); format: in vivo, NSG mice; details: 500 nmol/kg weekly, 5 million FITC-CAR-T
Method: To test whether FITC-CAR-T/EC17 therapy has anti-tumor activity in various FR+ tumor models, NSG mice were subcutaneously implanted with MDA-MB-231 (triple negative breast cancer cell line), OV90 (human ovarian cancer cell line), KB (human cervical adenocarcinoma cell line), SKOV-3 (human ovarian carcinoma cell line), or HEK293-FRa (HEK293 stably-transfected with human FRa). When tumor size reached […], one dose of EC17 at 500 nmol/kg of body weight was injected by tail vein followed with administering of 5 million FITC-CAR-T cells 4 hours later. 500 nmol/kg EC17 was dosed once every week after the initial EC17/CAR-T administration (about day 7), tumor size and body weights of mice were monitored three times per week. The EC17 dosing days were labeled as green dashed vertical lines in the graph. […] EC17 dose-dependent temporary body weight loss was also observed in all tumor bearing mice, indicating the activation of CAR-Ts is EC17-dependent in these mice.

[3] = system: MDA-MB-231; assay: EC17 dependent anti-tumor activity, MDA-MB-231 xenograft (Example 26); format: in vivo, NSG mice; details: 500 nmoles/kg once per week, 5 million CAR-T
Source text: Immunodeficient NSG mice (Jackson Laboratory) were used to show the efficacy of CAR T cell anti-tumor activity with a single dose of EC17 per week. Two folate receptor expressing cancer cell lines were used to establish subcutaneous solid tumor xenografts: MDA-MB-231 has high folate receptor expression, while OV90 has low folate receptor expression. When tumor volume of around 100-250 mm^3 was reached, mice were divided into two groups. Mice in the “EC17 500 nmol/kg” group (nmol/kg is equivalent to nmoles/kg as used in this patent application for the bridge) were injected with 500 nmoles/kg of body weight of EC17, while mice in the “no EC17” group were not injected with EC17. Four hours later, mice in both groups were administered 5 million anti-FITC CAR-T cells. After initial administration of EC17 and CAR-T cells, only mice in the “EC17 500 nmol/kg” group were injected (i.v.) with 500 nmoles/kg of EC17 once per week. Anti-tumor efficacy was monitored by tumor volume.

[4] = system: MDA-MB-231 solid tumor xenografts; format: in vivo
Method: MDA-MB-231 cells were subcutaneously injected into the shoulders of NSG mice (Jackson Laboratory) to establish solid tumor xenografts. When tumor volume reached around 50-100 mm^3, anti-FITC CAR T cells (15×10^6 cells) were intravenously introduced into tumor-bearing mice. Twenty NSG mice were divided into four study groups (5 animals in each group). The first group was treated with anti-FITC CAR T cells with phosphate-buffered saline (PBS) as a negative control. The second, third, and fourth groups were treated with anti-FITC CAR T cells with FITC-Folate (500 nmole/kg) every other day. Once a significant toxicity (e.g. serious loss of body weight) was detected, these groups were treated with either: continued FITC-Folate administration (second group); discontinuation of FITC-Folate administration until the mice recovered (third group); or a mixture of 100-fold excess of EC0923 (i.e. free folate) and FITC-Folate until the mice recovered (fourth group). The body weight was measured regularly to monitor toxicity. In addition, the blood concentration of interferon (IFN)-gamma for each treatment group was measured to monitor the degree of anti-FITC CAR T activation. Finally, tumor volume was measured to identify anti-tumor efficacy in each treatment group.

Compound: Nc1nc2ncc(CNc3ccc(C(=O)NC(CCC(=O)NCCNC(=S)Nc4ccc(-c5c6ccc(=O)cc-6oc6cc(O)ccc56)c(C(=O)O)c4)C(=O)O)cc3)nc2c(=O)[nH]1 (stereo not shown) [EC17, FITC-Folate]
- CAR-T cells in blood versus 0 nmol/kg EC17 ([1]; 5 nmol/kg, day 3): less CAR-T cells in their blood circulation
- CAR-T cells in blood ([1]; 50 or 500 nmol/kg, day 3): more CAR-T cells in their blood circulation
- EC17 dose with the highest CAR-T count ([1]; day 6, four EC17 doses): 50 nmol/kg
- cures [2]: 100%
- anti-tumor activity [3]: eliminate MDA-MB-231 tumors
- IFN-gamma blood concentration ([4]; break group): decreased
- complete response ([4]; break group): 100%
- IFN-gamma blood concentration ([4]; continued dose group): a significant amount IFN-gamma was detected
- survival of mice at the first week of treatment ([4]; continued dose group): 40%
- tumor response ([4]; continued dose group): delay of tumor growth
